% of control, % of inhibition and dTM data for eight molecules are collected here from ChEMBL document CHEMBL5465560, “Selectivity Literature for EUbOPEN Chemogenomic Library” (2024).

Test [1] concerns the target LIM domain kinase 2 (Homo sapiens) (UniProt P53671). The test is described as follows: Selectivity interaction (Ambit KINOMEscan and KiNATiv profiling in Jurkat cells) EUB0000090b LIMK2. The following applies: at 1 µM. The format is cell-based.
The target of test [2] is Homeodomain-interacting protein kinase 1 (Homo sapiens, UniProt Q86Z02). The test is described as follows: Selectivity interaction (SelectScreen profiling (Invitrogen)) EUB0000607a HIPK1. Particulars: at 2 µM.
Chain of Homeodomain-interacting protein kinase 1 (Q86Z02 whole entry, looked up): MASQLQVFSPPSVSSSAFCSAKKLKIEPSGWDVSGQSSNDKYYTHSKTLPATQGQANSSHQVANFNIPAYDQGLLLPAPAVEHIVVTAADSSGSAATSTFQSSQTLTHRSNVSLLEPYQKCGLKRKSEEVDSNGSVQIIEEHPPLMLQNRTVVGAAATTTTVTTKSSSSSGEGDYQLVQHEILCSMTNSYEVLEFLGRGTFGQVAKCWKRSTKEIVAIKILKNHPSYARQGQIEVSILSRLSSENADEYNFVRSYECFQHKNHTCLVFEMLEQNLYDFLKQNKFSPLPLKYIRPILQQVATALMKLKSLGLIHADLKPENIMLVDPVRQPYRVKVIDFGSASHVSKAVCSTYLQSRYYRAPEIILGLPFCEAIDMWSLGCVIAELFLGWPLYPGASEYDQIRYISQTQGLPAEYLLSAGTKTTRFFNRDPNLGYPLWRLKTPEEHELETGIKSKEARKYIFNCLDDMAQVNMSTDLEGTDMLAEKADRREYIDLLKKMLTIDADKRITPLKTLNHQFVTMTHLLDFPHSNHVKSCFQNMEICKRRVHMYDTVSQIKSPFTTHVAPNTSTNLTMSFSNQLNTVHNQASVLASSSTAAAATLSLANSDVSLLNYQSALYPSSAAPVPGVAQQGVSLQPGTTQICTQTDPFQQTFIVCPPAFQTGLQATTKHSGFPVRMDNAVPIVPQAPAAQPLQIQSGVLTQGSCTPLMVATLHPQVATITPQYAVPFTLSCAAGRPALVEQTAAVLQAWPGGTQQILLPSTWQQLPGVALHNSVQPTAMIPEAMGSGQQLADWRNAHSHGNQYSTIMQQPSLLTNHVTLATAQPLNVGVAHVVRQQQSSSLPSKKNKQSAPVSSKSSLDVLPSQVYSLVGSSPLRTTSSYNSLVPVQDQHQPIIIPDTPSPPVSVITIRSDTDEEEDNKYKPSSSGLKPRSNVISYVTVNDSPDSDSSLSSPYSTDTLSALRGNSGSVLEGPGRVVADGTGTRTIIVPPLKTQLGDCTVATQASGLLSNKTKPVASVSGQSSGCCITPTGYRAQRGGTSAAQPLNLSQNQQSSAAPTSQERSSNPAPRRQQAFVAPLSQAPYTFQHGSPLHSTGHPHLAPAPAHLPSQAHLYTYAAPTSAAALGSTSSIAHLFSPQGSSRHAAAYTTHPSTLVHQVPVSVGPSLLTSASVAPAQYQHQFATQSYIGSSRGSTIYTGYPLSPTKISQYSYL
For the next test, the target named is Aurora kinase B (Homo sapiens, UniProt Q96GD4). The test is described as follows: Selectivity interaction (SelectScreen profiling (Invitrogen)) EUB0000607a AURKB. Particulars: at 2 µM.
Chain of Aurora kinase B (Q96GD4 whole entry): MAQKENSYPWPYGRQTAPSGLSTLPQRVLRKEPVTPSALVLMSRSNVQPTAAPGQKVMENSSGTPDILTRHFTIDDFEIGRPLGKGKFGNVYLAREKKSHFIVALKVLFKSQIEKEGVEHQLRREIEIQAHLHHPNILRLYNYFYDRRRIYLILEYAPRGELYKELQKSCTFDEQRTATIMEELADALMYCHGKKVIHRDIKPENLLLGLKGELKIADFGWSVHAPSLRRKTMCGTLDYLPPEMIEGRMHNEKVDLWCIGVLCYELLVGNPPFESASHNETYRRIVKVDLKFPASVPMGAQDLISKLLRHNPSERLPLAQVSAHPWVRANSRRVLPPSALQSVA
Test [3] concerns the target T1, Serine/threonine-protein kinase TAO3 (Homo sapiens) (UniProt Q9H2K8).
T1 sequence (whole entry): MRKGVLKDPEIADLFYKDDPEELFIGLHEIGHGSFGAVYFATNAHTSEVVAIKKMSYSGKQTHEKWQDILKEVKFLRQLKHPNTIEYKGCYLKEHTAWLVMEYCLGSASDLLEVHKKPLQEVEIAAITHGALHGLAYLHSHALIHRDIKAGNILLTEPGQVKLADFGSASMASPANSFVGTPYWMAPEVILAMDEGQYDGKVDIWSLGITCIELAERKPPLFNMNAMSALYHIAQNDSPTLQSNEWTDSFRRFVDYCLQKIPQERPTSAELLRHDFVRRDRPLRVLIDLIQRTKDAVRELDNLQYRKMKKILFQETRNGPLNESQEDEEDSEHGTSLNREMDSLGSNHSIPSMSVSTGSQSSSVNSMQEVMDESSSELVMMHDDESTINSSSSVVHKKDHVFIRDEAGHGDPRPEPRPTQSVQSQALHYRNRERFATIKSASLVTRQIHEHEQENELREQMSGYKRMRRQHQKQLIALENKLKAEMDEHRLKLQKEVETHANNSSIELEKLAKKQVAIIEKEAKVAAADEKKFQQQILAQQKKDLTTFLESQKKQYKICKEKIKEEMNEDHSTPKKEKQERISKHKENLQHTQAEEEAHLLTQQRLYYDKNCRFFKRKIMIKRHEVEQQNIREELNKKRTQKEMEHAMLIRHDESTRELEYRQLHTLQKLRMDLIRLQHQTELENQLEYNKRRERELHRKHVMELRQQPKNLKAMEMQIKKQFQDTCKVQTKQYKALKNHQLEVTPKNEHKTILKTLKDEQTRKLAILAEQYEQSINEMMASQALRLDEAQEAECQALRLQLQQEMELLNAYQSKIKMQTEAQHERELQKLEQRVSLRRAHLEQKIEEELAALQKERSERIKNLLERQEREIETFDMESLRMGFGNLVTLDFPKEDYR
The test is described as follows: Selectivity interaction (KinomeScan (DiscoverX)) EUB0000607a TAOK3. The following applies: at 10 µM.

Test [4] has as its target Microtubule-associated serine/threonine-protein kinase 1 (Homo sapiens) (UniProt Q9Y2H9). Briefly: Selectivity interaction (KinomeScan (DiscoverX)) EUB0000666a MAST1. The following applies: at 10 µM.
In test [5] the target is Leucine-rich repeat serine/threonine-protein kinase 2 (Homo sapiens, UniProt Q5S007). Briefly: Selectivity interaction (SelectScreen Kinase Profiling (Thermo Fisher Scientific)) EUB0001558a LRRK2. Particulars: at 1 µM.
In test [6] the target is STE20/SPS1-related proline-alanine-rich protein kinase (Homo sapiens) (UniProt Q9UEW8). The test is described as follows: Selectivity interaction (Kinase panel (DSF assay)) EUB0001558a STK39. On the technique in general: DSF heats the sample and reads unfolding from a dye or from intrinsic fluorescence.
In test [7] the target is T2, Phosphatidylinositol 5-phosphate 4-kinase type-2 gamma (Homo sapiens) (UniProt Q8TBX8).
T2 sequence (whole entry): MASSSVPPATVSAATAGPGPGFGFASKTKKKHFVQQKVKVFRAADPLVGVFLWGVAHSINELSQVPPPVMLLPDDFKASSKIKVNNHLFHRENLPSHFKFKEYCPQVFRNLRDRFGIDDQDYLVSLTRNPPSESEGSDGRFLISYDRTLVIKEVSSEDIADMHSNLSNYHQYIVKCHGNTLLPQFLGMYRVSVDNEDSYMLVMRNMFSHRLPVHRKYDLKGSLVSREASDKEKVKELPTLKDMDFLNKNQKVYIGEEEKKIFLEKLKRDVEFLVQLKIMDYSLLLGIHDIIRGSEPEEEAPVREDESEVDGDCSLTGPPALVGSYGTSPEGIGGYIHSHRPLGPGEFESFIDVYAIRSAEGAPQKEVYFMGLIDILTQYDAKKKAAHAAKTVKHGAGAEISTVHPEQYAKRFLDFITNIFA
The test is described as follows: Selectivity interaction (ActivX KiNativ screen (kinase selectivity in THP-1 cell lysates)) EUB0000639a PIP4K2C. The test is classed as subcellular. Particulars: lysate, at 0.2 µM.

Test [8] addresses Ribosomal protein S6 kinase alpha-1 (Homo sapiens, UniProt Q15418). The test is described as follows: Selectivity interaction (ActivX KiNativ screen (kinase selectivity in THP-1 cell lysates)) EUB0000639a RPS6KA1. The format is subcellular. The following applies: lysate, at 1 µM.
In test [9] the test system is Epidermal growth factor receptor (Homo sapiens), P00533 [UNDEFINED MUTATION]. Briefly: Selectivity interaction (ProQinase) EUB0000171b EGFR. The following applies: at 1 µM.
Chain of Epidermal growth factor receptor (Homo sapiens), P00533 [UNDEFINED MUTATION] (P00533 whole entry, looked up, change not shown): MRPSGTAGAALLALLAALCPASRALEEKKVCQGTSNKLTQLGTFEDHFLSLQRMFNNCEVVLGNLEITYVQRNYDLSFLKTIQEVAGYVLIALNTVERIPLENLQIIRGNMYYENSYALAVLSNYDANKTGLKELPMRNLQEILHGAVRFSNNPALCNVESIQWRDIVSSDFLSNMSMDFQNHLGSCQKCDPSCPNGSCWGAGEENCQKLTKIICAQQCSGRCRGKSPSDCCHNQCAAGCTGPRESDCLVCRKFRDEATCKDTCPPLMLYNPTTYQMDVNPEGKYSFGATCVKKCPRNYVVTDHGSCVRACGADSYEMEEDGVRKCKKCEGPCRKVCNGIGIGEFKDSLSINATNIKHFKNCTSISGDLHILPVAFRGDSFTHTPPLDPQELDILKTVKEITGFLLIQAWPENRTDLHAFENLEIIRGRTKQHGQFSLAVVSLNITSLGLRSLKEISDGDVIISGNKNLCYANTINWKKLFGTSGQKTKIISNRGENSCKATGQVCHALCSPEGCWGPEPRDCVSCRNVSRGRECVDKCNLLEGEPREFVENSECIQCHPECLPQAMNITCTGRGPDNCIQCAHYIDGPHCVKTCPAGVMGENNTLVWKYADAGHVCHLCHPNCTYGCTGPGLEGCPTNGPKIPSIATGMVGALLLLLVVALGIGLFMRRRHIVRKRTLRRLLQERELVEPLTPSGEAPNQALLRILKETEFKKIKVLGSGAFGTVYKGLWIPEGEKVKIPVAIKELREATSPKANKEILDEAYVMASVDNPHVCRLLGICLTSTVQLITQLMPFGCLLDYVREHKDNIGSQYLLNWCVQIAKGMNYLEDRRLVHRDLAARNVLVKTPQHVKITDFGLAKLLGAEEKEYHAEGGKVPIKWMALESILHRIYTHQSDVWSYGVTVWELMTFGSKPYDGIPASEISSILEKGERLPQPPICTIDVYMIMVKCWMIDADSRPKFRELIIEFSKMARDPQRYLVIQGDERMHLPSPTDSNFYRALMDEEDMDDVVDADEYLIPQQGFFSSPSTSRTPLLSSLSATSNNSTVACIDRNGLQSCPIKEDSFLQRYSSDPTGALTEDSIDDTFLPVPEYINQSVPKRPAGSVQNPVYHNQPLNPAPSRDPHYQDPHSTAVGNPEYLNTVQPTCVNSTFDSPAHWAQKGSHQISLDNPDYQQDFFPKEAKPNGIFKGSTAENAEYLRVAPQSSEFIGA
Test [10] concerns the target Serine/threonine-protein kinase 32C (Homo sapiens) (UniProt Q86UX6). The test is described as follows: Selectivity interaction (KinomeScan (DiscoverX)) EUB0000618a STK32C. Particulars: at 10 µM.
The target in test [11] is Myosin light chain kinase, smooth muscle (Homo sapiens, UniProt Q15746). The test is described as follows: Selectivity interaction (KinomeScan (DiscoverX)) EUB0000595a MYLK. Particulars: at 10 µM.
Test [12] concerns the target T3, NUAK family SNF1-like kinase 1 (Homo sapiens) (UniProt O60285).
T3 sequence (whole entry): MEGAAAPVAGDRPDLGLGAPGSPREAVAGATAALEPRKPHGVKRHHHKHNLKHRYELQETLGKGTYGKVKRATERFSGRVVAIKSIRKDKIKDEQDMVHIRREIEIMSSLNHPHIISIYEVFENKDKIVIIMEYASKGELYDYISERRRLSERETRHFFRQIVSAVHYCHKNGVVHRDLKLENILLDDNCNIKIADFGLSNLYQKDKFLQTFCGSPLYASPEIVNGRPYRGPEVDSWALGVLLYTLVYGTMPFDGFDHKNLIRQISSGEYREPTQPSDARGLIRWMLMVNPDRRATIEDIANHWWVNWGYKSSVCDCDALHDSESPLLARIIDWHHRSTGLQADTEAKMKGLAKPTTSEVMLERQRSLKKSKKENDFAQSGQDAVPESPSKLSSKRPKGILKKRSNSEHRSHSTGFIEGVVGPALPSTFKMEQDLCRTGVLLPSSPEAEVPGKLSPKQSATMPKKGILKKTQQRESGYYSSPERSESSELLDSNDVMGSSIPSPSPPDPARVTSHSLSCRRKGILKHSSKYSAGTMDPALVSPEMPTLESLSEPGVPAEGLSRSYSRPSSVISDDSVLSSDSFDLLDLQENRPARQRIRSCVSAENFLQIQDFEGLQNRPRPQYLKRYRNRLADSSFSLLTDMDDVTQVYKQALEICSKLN
Briefly: Selectivity interaction (KinomeScan (DiscoverX)) EUB0000595a NUAK1. Particulars: at 10 µM.

Chain of Microtubule-associated serine/threonine-protein kinase 1 (Homo sapiens) (Q9Y2H9 whole entry, looked up): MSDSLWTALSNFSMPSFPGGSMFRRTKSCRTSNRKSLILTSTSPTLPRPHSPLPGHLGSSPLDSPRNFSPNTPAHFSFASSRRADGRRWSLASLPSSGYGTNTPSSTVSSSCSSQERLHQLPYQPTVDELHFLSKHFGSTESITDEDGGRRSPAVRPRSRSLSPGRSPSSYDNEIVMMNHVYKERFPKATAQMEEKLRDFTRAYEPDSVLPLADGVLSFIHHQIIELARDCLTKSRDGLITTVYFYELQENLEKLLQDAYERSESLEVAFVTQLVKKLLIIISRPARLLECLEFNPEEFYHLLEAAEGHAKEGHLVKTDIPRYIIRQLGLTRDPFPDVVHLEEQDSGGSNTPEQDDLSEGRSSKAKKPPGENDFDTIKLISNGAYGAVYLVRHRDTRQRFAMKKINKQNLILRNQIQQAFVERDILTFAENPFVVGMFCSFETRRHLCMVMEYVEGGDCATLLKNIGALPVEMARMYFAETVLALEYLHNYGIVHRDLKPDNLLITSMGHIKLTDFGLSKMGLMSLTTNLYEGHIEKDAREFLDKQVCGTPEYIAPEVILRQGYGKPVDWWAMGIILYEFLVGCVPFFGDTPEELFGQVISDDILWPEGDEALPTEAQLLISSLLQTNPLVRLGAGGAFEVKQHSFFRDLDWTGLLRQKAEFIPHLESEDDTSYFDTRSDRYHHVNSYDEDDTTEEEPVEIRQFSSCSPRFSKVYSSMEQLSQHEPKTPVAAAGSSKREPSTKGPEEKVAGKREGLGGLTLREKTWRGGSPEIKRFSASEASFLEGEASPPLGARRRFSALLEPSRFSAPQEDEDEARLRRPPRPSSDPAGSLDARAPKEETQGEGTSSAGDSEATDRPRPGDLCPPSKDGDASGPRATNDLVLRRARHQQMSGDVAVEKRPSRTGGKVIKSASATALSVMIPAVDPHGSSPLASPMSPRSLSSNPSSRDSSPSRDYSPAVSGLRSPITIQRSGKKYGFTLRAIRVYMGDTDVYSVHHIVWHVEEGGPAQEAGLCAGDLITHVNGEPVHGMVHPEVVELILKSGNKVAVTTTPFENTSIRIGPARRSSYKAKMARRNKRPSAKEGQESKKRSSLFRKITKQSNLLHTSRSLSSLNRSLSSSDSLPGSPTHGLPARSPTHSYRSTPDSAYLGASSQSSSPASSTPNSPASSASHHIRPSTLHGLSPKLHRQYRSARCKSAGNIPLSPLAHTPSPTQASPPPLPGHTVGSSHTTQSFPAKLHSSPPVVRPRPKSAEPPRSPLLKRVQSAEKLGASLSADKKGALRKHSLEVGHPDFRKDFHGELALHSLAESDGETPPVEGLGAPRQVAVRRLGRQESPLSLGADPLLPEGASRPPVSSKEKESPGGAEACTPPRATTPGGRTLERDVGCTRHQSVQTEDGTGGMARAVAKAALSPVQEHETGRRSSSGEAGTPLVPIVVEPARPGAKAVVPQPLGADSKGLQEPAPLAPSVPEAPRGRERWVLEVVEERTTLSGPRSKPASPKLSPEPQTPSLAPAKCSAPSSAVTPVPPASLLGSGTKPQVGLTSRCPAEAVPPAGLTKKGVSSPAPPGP
Chain of Ribosomal protein S6 kinase alpha-1 (Q15418 whole entry): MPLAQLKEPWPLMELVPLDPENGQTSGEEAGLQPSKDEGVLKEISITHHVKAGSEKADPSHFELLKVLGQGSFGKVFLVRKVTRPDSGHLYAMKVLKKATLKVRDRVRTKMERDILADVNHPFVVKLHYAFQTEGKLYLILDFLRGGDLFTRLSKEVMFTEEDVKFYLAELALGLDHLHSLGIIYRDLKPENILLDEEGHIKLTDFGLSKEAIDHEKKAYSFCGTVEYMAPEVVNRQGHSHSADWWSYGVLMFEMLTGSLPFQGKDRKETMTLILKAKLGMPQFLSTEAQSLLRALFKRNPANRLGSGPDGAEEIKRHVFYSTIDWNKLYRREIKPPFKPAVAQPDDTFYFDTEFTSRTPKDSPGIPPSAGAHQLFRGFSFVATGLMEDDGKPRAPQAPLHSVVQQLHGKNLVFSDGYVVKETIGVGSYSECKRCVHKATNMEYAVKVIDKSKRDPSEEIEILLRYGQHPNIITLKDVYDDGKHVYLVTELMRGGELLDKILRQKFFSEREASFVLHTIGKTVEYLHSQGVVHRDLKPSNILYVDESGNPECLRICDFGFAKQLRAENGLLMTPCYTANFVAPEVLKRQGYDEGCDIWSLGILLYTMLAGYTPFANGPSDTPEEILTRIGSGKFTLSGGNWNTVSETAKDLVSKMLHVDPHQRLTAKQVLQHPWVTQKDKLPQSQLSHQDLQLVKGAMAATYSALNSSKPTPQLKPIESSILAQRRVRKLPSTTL

With `CN(C)C/C=C/C(=O)Nc1ccc(C(=O)N2CCCC(Nc3ncc(Cl)c(-c4c[nH]c5ccccc45)n3)C2)cc1` (stereo not drawn), in [1], the % of control was 95%. Take `CNC(=O)Nc1ccc(-c2nc(N3CC4CCC(C3)O4)c3cnn(C4CCC5(CC4)OCCO5)c3n2)cc1`: the % of inhibition in test [2] came to 1%; on Aurora kinase B, 3%. Besides, the % of control in test [3] worked out at 90%. In test [4], `O=C(NOC[C@H](O)CO)c1ccc(F)c(F)c1Nc1ccc(I)cc1F` came in with a % of control of 100%.

In turn, `CC(C)(O)[C@H](F)CN1Cc2cc(NC(=O)c3cnn4cccnc34)c(N3CCOCC3)cc2C1=O` returned a % of inhibition in test [5] of 91.4%. This molecule had a dTM in [6] of 0.2 K. With `CC[C@@H]1[C@H](F)C(=O)N[C@@H]1COc1nccc2cc(C(N)=O)c(OC)cc12` [ZIMLOVISERTIB], the % of inhibition in test [7] amounted to 51.3%; in [8], 8.6%. For `C=CC(=O)Nc1cccc(C(=O)Nc2ccc(Nc3cc(-c4[nH]c(SC)nc4C)ccn3)cc2)c1`, the % of control in test [9] was 88%. In test [10], `O[C@H]1CC[C@H](Nc2ncc3nc(Nc4c(F)cc(F)cc4F)n([C@H]4CCOC4)c3n2)CC1` displayed a % of control of 100%. Take `COCC(=O)NC/C=C/c1ccc2ncnc(Nc3ccc(Oc4ccc(C)nc4)c(C)c3)c2c1` [CP-724714]: the % of control in [11] was found to be 87%; in test [12], 100%.
